According to patent US5624906A, “Oral hygiene compositions comprising heteroatom containing alkyl aldonamide compounds” (Lever Brothers Company, Division of Conopco, Inc., priority 1994, dated 1997):

Tests used:
[1] = Krafft point; type: physicochemical; conditions: for Krafft Point (0.1%): 0.1% in water; for Krafft Point (1.0%): 1.0% in water
Description: The temperature at and above which surfactants begin to form micelles instead of precipitates is referred to as the Krafft point (Tk) and at this temperature the solubility of a surfactant becomes equal to its CMC (numerical value at which micelles are formed).
The Krafft point was measured by preparing 650 ml of a 0.1% or 1.0% dispersion of aldonamide in water by weight. If the surfactant was soluble at room temperature, the solution was slowly cooled to 0° C. […] (less than zero). If it precipitated out of solution, the temperature at which precipitation occurs was taken as the Krafft point.
If the surfactant was insoluble at room temperature, the dispersion was slowly heated until the solution became homogeneous. It was then slowly cooled until precipitation occurred. The temperature at which the surfactant precipitates out of solution upon cooling was taken as the Krafft point.

[2] = Ross-Miles foam height (Examples 81-84); type: physicochemical; conditions: for Foam Height Initial / Foam Height Final: 0.1% aldonamide, 40° C. (or 5-10° C. above Krafft point), 0 ppm hardness; for Foam Height Final: after 10 minutes; for Solubility: 0.1% in water
Description: In the Ross-Miles method, 200 mL of a surfactant solution contained in a pipette of specified dimensions with a 2.9-mm-i.d. orifice is allowed to fall 90 cm onto 50 mL of the same solution contained in a cylindrical vessel maintained at a given temperature by means of a water jacket. The height of the foam produced in the cylindrical vessel is read immediately after all the solution has run out of the pipette and then again after a given amount of time.
Using this method, the foam production (initial foam height in mm) and foam stability (final foam height after 10 minutes in mm) were measured at 0.1% aldonamide concentration, 40° C. and 0 ppm (parts per million) hardness.

Row | Molecule | Krafft Point (0.1%) [1] | Krafft Point (1.0%) [1] | also measured
1 | CCCCCCCCCCCCOC(=O)C(C)NC(=O)[C@H](O)[C@@H](O)[C@H](O)[C@H](O)CO (mixture of isomers) [N-D-Gluconyl C12 DL-Alaninate, N-D-Gluconyl Dodecyl DL-Alaninate] | 53 °C |  | 
2 | CCCCCCCNC(=O)[C@H](O)[C@@H](O)[C@H](O)[C@H](O)CO [C7 D-Gluconamide] | < 0 °C |  | Foam Height Initial [2]: 0 mm; Foam Height Final [2]: 0 mm
3 | CCCCCCCCCCCCNC(=O)[C@H](O)[C@@H](O)[C@@H](O)[C@H](O)CO [C12 D-Galactonamide] | > 100 °C |  | Solubility [2]: Insoluble
4 | CCCCCCCCCCCCNC(=O)[C@H](O)[C@@H](O)[C@H](O[C@@H]1O[C@H](CO)[C@H](O)[C@H](O)[C@H]1O)[C@H](O)CO [C12 D-Lactobionamide] |  | 38 °C | Foam Height Final [2]: 20 mm
5 | CCCCCCCCCCCCNC(=O)[C@@H](O)[C@H](O)[C@H](O)[C@@H](O)CO [C12 L-Galactonamide] | > 100 °C |  | Solubility [2]: Insoluble
6 | CCCCCCCCCCCCOCCCNC(=O)[C@H](O)[C@@H](O)[C@H](O[C@H]1O[C@H](CO)[C@@H](O)[C@H](O)[C@H]1O)[C@H](O)CO [C12 Oxypropyl D-Maltobionamide, dodecyloxypropyl D-maltobionamide] |  | < 0 °C | 
7 | CCCCCCCCCCCCCNC(=O)[C@H](O)[C@@H](O)[C@H](O[C@@H]1O[C@H](CO)[C@H](O)[C@H](O)[C@H]1O)[C@H](O)CO [C13 D-Lactobionamide] |  | 70 °C | Foam Height Final [2]: 78 mm
8 | CCCCCCCCCCCCCCNC(=O)[C@H](O)[C@@H](O)[C@H](O)[C@H](O)CO [C14 D-Gluconamide] | > 100 °C |  | Solubility [2]: Insoluble
9 | CCCCCCCCCCCCCCOCCCNC(=O)[C@H](O)[C@@H](O)[C@H](O)[C@H](O)CO [C14 Oxypropyl D-Gluconamide] | 53 °C |  | 
10 | CCCCCCCCCCCCCCOCCCNC(=O)[C@H](O)[C@@H](O)[C@H](O[C@@H]1O[C@H](CO)[C@H](O)[C@H](O)[C@H]1O)[C@H](O)CO [C14 Oxypropyl D-Lactobionamide, tetradecyloxypropyl D-lactobionamide] |  | < 0 °C | 
11 | CCCCCCCCCCCCCCCCNC(=O)[C@H](O)[C@@H](O)[C@H](O)[C@H](O)CO [C16 D-Gluconamide] | > 100 °C |  | Solubility [2]: Insoluble
12 | CCCCCCCCCCCCOC(=O)CNC(=O)[C@H](O)[C@@H](O)[C@H](O[C@@H]1O[C@H](CO)[C@H](O)[C@H](O)[C@H]1O)[C@H](O)CO [D-Lactobionyl C12 Glycinate, N-D-lactobionyl dodecyl glycinate] |  | < 0 °C | 
13 | CCCCCCCCCCCCOC(=O)CCNC(=O)[C@H](O)[C@@H](O)[C@H](O[C@@H]1O[C@H](CO)[C@H](O)[C@H](O)[C@H]1O)[C@H](O)CO [D-Lactobionyl C12 β-Alaninate, N-D-lactobionyl dodecyl β-alaninate] |  | < 0 °C | 
14 | CCCCCCCCCCCCOC(=O)CNC(=O)[C@H](O)[C@@H](O)[C@H](O)[C@H](O)CO [N-D-Gluconyl C12 Glycinate, N-D-gluconyl dodecyl glycinate] | 63 °C |  | 
15 | CCCCCCCC/C=C\CCCCCCCCNCCCNC(=O)[C@H](O)[C@@H](O)[C@H](O[C@@H]1O[C@H](CO)[C@H](O)[C@H](O)[C@H]1O)[C@H](O)CO [Oleylaminopropyl D-Lactobionamide, oleylaminopropyl D-lactobionamide] |  | < 0 °C | 
16 | soyaaminopropyl D-gluconamide | < 18 °C |  | 

Now from value to molecule, other results behind:

Row | Krafft Point (0.1%) [1] | Krafft Point (1.0%) [1] | Molecule | also measured
17 | 12 °C |  | CCCCCCCCNC(=O)[C@H](O)[C@@H](O)[C@H](O)[C@H](O)CO [C8 D-Gluconamide] | Foam Height Initial [2]: 0 mm; Foam Height Final [2]: 0 mm
18 |  | 42 °C | CCCCCCCCCNC(=O)[C@H](O)[C@@H](O)[C@H](O[C@@H]1O[C@H](CO)[C@H](O)[C@H](O)[C@H]1O)[C@H](O)CO [C9 D-Lactobionamide, nonyl D-lactobionamide] | Foam Height Initial [2]: 0 mm; Foam Height Final [2]: 0 mm
19 | 87 °C |  | CCCCCCCCCCCNC(=O)[C@H](O)[C@@H](O)[C@H](O)[C@H](O)CO [C11 D-Gluconamide] | 
20 |  | 61 °C | CCCCCCCCCCCNC(=O)[C@H](O)[C@@H](O)[C@H](O[C@@H]1O[C@H](CO)[C@H](O)[C@H](O)[C@H]1O)[C@H](O)CO [C11 D-Lactobionamide] | Foam Height Initial [2]: 0 mm; Foam Height Final [2]: 0 mm
21 | 91 °C |  | CCCCCCCCCCCCNC(=O)[C@H](O)[C@H](O)[C@@H](O)[C@H](O)[C@H](O)CO [C12 D-Glucoheptonamide] | 
22 | < 86 °C |  | CCCCCCCCCCCCNC(=O)C(O)C(O)C(O)C(O)C(O)C(O)CO [C12 D-Glucooctonamide] | 
23 | > 100 °C |  | CCCCCCCCCCCCNC(=O)[C@H](O)[C@H](O)[C@@H](O)[C@@H](O)[C@H](O)CO [C12 D-Glycero-L-Mannoheptonamide] | Solubility [2]: Insoluble
24 | 91 °C |  | CCCCCCCCCCCCNC(=O)[C@@H](O)[C@H](O)[C@@H](O)[C@@H](O)CO [C12 L-Gluconamide] | 
25 | > 100 °C |  | CCCCCCCCCCCCNC(=O)[C@H](O)[C@H](O)[C@@H](O)[C@@H](O)CO [C12 L-Mannonamide] | Solubility [2]: Insoluble
26 | 73 °C |  | CCCCCCCCCCCCOCCCNC(=O)[C@H](O)[C@H](O)[C@@H](O)[C@H](O)[C@H](O)CO [C12 Oxypropyl D-Glucoheptonamide] | Foam Height Final [2]: 80 mm
27 | 54 °C |  | CCCCCCCCCCCCNC(=O)[C@H](O)[C@H](O)[C@H](O)CO [C12 Ribonamide, dodecyl D-ribonamide] | 
28 |  | 18 °C | CCCCCCCCCCCCCCNC(=O)[C@H](O)[C@@H](O)[C@H](O[C@@H]1O[C@H](CO)[C@H](O)[C@H](O)[C@H]1O)[C@H](O)CO [C14 D-Lactobionamide] | Foam Height Final [2]: 59 mm
29 |  | 46 °C | CCCCCCCCCCCCCCNC(=O)[C@H](O)[C@@H](O)[C@H](O[C@H]1O[C@H](CO)[C@@H](O)[C@H](O)[C@H]1O)[C@H](O)CO [C14 D-Maltobionamide] | Foam Height Final [2]: 140 mm
30 |  | 84 °C | CCCCCCCCCCCCCCCNC(=O)[C@H](O)[C@@H](O)[C@H](O[C@@H]1O[C@H](CO)[C@H](O)[C@H](O)[C@H]1O)[C@H](O)CO [C15 D-Lactobionamide] | 
31 |  | 82 °C | CCCCCCCCCCCCCCCCCCNC(=O)[C@H](O)[C@@H](O)[C@H](O[C@@H]1O[C@H](CO)[C@H](O)[C@H](O)[C@H]1O)[C@H](O)CO [C18 D-Lactobionamide] | 
32 | < 0 °C |  | CCCCCCCCCCCCOCCOCCOC(=O)CNC(=O)[C@H](O)[C@@H](O)[C@H](O)[C@H](O)CO [N-D-Gluconyl C12 Di(oxyethyl) Glycinate, N-D-Gluconyl Dodecyldi(oxyethyl) Glycinate] | 
33 | 63 °C |  | CCCCCCCCCCCC(=O)OCCNC(=O)[C@H](O)[C@@H](O)[C@H](O)[C@H](O)CO [N-D-Gluconyl C12 Ester of Ethanolamine, N-D-gluconyl dodecyl ester of ethanolamine] | 
